# Measurements reported in US20200017496A1 (priority 2017, published 2020).
# Read-outs that look alike come from different tables or passages of the source.
# How the values were obtained:
# [1] = test system: Salmonella typhimurium (STY) isolates; assay: MIC of compounds alone and combined with antibacterials, broth microdilution (CLSI); format: cell-based
# Procedure, shortened: (§1)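 Compound MIC, and antibacterial MIC at each fixed compound level, taken by visual inspection as lowest concentration stopping growth. Inoculum: log-phase bacteria, final 5·10^5 CFU/mL, cation-adjusted Mueller-Hinton broth; 16-20 h, 35° C, ambient air.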
# [2] = test system: Providencia rettgeri (PRE) isolates; assay: as above; format: cell-based
# Procedure, shortened: as §1
# in vivo = assay: in vivo; set-up: species or system Swiss Mouse; details: male, Swiss, mouse, in vivo, 10 mg/kg
# Protocol: Water and food were available ad libitum throughout the study. Mouse were handled in accordance with the institutional and national guidelines for the care and use of laboratory animals. […] Drugs were administered by oral gavage using feeding needle. […] Plasma samples were stored at -80° C. until bioanalysis. […] Plasma samples bioanalysis and data analysis The plasma samples (20 μl) were thawed at 0° C. […] Standard samples were prepared by spiking the blank plasma into concentrations 10-5 000 ng/ml and otherwise treated as the samples. […] Mass spectrometric detection involved electrospray ionization in the negative mode followed by multiple reaction monitoring of the drugs and internal standard transitions. Actual drug concentrations were deduced from interpolation of the standard curve. The pharmacokinetic parameters were calculated using XLfit (IDBS) and Excel (Microsoft) software, using standard non-compartmental methods. The intraduodenal bioavailability was calculated by dividing the AUC obtained from the intraduodenal administration by the AUC obtained from the intravenous administration.
# [3] = Salmonella enterica, TYPHIMURIUM, strain STY S3371 (OXA-1), ATB alone
# [4] = Providencia rettgeri, strain PRE UFR99 (OXA-1, OXA-181), ATB alone
# [5] = Providencia rettgeri, ATB alone, strain PRE UFR236 (TEM-1, OXA-48), read-out: MIC
# [6] = strain PRE UFR236, antibacterial combined with AF1 @ 4 μg/mL
# [7] = Salmonella enterica, TYPHIMURIUM, strain STY S3371 (OXA-1), CLA @ 4 μg/ml+ ATB
# [8] = Providencia rettgeri, strain PRE UFR99 (OXA-1, OXA-181), CLA @ 4 μg/ml+ ATB
# [9] = strain PRE UFR236, antibacterial combined with AF1 @ 8 μg/mL
smiles,measurement,setting,value
"CO/N=C(\C(=O)N[C@@H]1C(=O)N2C(C(=O)O)=C(COC(N)=O)CS[C@H]12)c1ccco1 [FUR, Cefuroxime]",MIC ATB in combination,"[1]; STY S3371, AF1 @ 4 μg/mL",4 µg/mL
same,MIC,[1]; [3],32 µg/mL
same,MIC ATB in combination,"[2]; PRE UFR99, AF1 @ 4 μg/mL",>128 µg/mL
same,MIC,[2]; [4],> 256 µg/mL
same,MIC,[2]; [5],64 µg/mL
same,MIC ATB in combination,[2]; [6],8 µg/mL
"CC1(C)S[C@@H]2[C@H](NC(=O)[C@H](N)c3ccc(O)cc3)C(=O)N2[C@H]1C(=O)O [AMX, Amoxicillin]",MIC ATB in combination,[1],128 µg/mL
same,MIC,[1]; [3],> 256 µg/mL
same,MIC,[1]; [7],128 µg/mL
same,MIC ATB in combination,"[2]; PRE UFR99, AF1 @ 4 μg/mL",>512 µg/mL
same,MIC,"[2]; Providencia rettgeri, ATB combined with CLA @ 4 μg/ml, strain PRE UFR236 (TEM-1, OXA-48)",> 128 µg/mL
same,MIC,[2]; [4],> 128 µg/mL
same,MIC,[2]; [8],> 128 µg/mL
same,MIC,"[2]; Providencia rettgeri, ATB alone, strain PRE UFR236 (TEM-1, OXA-48)",> 128 µg/mL
same,MIC ATB in combination,[2]; [6],512 µg/mL
"COCC1=C(C(=O)O)N2C(=O)[C@@H](NC(=O)/C(=N\OC)c3csc(N)n3)[C@H]2SC1 [POD, Cefpodoxime]",MIC ATB in combination,"[1]; STY S3371, AF1 @ 4 μg/mL",<=0.25 μg/mL
same,MIC ATB in combination,"[2]; PRE UFR99, AF1 @ 4 μg/mL",>128 µg/mL
same,MIC ATB in combination,[2]; [6],1 µg/mL
NC(=O)[C@@H]1CC[C@@H]2CN1C(=O)N2OC(F)(F)C(=O)[O-].[Na+] [EA1],MIC,"[1]; STY S3371, alone",>32 µg/mL
same,MIC,"[2]; PRE UFR99, alone",32 µg/mL
same,MIC,"[2]; strain PRE UFR236, compound alone",>32 µg/mL
"CC(C)(O/N=C(\C(=O)N[C@@H]1C(=O)N2C(C(=O)[O-])=C(C[n+]3ccccc3)CS[C@H]12)c1csc(N)n1)C(=O)O [CAZ, Ceftazidime]",MIC ATB in combination,[1],<=0.25 μg/mL
same,MIC,[2]; [4],> 256 µg/mL
same,MIC,[2]; [5],32 µg/mL
same,MIC ATB in combination,[2]; [6],1 µg/mL
same,MIC ATB in combination,[2]; [9],0.5 µg/mL
"C=CC1=C(C(=O)O)N2C(=O)[C@@H](NC(=O)/C(=N\OCC(=O)O)c3csc(N)n3)[C@H]2SC1 [FIX, Cefixime]",AUC(0-inf),in vivo; iv,37200 ng·h/mL
same,bioavailability,in vivo; po,45%
same,MIC ATB in combination,"[1]; STY S3371, AF1 @ 4 μg/mL",<=0.25 μg/mL
same,MIC ATB in combination,"[1]; STY S3371, AF1 @ 8 μg/mL",<=0.25 μg/mL
same,MIC,[1]; [3],≤ 0.25 µg/mL
same,MIC,[1]; [7],≤ 0.25 µg/mL
same,MIC,"[2]; ATB combined with CLA @ 4 μg/ml, strain PRE UFR236 (TEM-1, OXA-48)",32 µg/mL
same,MIC ATB in combination,"[2]; PRE UFR99, AF1 @ 4 μg/mL",>128 µg/mL
same,MIC ATB in combination,"[2]; PRE UFR99, AF1 @ 8 μg/mL",>128 µg/mL
same,MIC,[2]; [4],> 128 µg/mL
same,MIC,[2]; [8],> 128 µg/mL
same,MIC,[2]; [5],32 µg/mL
same,MIC ATB in combination,[2]; [6],1 µg/mL
same,MIC ATB in combination,[2]; [9],0.5 µg/mL
"C=CC1=C(C(=O)O)N2C(=O)[C@@H](NC(=O)/C(=N\O)c3csc(N)n3)[C@H]2SC1 [CDR, Cefdinir]",MIC ATB in combination,"[1]; STY S3371, AF1 @ 4 μg/mL",<=0.25 μg/mL
same,MIC ATB in combination,"[2]; PRE UFR99, AF1 @ 4 μg/mL",>128 µg/mL
same,MIC ATB in combination,[2]; [6],2 µg/mL
